Reference: ChEMBL document CHEMBL5653615 (J Biol Chem, 2013)

Columns and labels:
[1] = molecular target: Platelet-derived growth factor receptor beta (Homo sapiens) (UniProt P09619); assay: Inhibition of human PDGFRb at 500 nM by HotSpot assay relative to control
[2] = molecular target: T1, cAMP-dependent protein kinase catalytic subunit PRKX (Homo sapiens) (UniProt P51817); assay: Inhibition of human PRKX at 18.6 nM by HotSpot assay relative to control
T1 sequence (whole entry): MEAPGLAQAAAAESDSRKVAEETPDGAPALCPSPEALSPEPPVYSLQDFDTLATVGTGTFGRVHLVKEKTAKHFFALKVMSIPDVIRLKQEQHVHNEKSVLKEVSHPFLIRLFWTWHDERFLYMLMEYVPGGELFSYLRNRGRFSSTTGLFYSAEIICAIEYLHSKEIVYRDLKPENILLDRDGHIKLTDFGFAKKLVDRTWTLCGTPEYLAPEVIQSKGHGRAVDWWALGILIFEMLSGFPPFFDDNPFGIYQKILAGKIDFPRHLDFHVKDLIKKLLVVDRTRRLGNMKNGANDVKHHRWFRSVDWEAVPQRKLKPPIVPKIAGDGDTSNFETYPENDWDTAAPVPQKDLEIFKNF

[3] = molecular target: Proto-oncogene tyrosine-protein kinase ROS (Homo sapiens) (UniProt P08922); assay: Inhibition of human ROS1 at 18.6 nM by HotSpot assay relative to control
Chain of Proto-oncogene tyrosine-protein kinase ROS (Homo sapiens) (P08922 whole entry): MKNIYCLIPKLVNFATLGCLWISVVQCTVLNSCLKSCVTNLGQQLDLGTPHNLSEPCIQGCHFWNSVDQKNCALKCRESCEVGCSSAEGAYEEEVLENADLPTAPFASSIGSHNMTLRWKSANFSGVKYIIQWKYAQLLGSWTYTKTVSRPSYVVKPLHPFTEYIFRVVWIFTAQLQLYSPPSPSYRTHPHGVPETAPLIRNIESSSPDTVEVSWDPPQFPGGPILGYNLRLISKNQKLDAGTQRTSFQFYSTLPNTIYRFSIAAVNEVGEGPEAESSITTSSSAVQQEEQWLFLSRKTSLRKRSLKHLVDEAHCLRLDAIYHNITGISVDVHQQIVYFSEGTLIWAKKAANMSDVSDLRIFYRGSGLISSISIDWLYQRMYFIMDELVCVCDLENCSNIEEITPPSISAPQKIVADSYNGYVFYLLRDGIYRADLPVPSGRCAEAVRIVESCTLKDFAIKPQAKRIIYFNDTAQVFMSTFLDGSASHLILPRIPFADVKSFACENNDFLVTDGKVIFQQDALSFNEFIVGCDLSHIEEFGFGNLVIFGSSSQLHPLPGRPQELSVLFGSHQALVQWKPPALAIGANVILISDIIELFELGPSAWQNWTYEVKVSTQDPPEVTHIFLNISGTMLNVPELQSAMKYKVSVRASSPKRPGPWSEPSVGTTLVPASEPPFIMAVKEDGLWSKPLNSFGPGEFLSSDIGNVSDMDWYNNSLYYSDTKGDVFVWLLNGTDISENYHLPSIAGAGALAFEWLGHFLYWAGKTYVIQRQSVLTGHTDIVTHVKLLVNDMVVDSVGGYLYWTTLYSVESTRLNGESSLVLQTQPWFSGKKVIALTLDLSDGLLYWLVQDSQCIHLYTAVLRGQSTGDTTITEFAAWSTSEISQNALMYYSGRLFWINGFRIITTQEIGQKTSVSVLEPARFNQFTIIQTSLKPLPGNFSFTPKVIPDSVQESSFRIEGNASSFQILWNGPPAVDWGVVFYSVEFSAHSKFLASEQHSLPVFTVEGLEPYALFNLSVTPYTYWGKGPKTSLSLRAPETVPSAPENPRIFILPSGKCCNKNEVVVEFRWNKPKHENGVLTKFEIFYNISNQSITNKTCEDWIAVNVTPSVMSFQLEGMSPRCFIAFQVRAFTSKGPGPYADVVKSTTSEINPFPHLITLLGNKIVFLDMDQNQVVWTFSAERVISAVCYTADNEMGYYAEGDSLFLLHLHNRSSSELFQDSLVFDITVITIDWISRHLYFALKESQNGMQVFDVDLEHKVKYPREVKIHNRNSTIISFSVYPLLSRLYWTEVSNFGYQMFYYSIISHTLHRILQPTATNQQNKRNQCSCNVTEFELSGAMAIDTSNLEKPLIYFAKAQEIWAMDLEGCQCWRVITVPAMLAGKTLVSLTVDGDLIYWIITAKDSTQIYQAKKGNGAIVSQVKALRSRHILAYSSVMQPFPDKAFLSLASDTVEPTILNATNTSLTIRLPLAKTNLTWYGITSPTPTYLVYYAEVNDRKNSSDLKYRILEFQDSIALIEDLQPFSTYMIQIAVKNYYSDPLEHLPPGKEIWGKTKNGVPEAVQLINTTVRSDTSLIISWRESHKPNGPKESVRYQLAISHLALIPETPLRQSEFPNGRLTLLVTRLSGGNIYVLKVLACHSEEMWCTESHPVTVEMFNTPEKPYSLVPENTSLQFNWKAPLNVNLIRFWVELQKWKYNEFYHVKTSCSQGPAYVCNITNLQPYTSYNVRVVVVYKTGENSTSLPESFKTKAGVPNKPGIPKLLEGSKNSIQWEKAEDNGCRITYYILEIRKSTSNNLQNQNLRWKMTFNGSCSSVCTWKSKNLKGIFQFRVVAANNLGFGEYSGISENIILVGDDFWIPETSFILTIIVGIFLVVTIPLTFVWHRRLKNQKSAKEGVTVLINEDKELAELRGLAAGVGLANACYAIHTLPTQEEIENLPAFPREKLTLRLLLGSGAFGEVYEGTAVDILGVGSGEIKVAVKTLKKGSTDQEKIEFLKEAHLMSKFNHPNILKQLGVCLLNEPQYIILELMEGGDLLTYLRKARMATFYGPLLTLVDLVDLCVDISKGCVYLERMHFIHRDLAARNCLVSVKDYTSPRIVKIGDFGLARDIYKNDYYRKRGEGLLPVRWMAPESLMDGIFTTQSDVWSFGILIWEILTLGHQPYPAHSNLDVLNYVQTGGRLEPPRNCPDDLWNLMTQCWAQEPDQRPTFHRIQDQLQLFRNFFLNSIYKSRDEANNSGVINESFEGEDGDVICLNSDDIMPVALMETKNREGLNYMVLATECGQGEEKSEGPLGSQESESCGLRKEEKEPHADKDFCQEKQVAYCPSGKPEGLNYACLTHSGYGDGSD

[4] = molecular target: T2, Serine/threonine-protein kinase ULK1 (Homo sapiens) (UniProt O75385); assay: Inhibition of human ULK1 at 18.6 nM by HotSpot assay relative to control
T2 sequence (whole entry): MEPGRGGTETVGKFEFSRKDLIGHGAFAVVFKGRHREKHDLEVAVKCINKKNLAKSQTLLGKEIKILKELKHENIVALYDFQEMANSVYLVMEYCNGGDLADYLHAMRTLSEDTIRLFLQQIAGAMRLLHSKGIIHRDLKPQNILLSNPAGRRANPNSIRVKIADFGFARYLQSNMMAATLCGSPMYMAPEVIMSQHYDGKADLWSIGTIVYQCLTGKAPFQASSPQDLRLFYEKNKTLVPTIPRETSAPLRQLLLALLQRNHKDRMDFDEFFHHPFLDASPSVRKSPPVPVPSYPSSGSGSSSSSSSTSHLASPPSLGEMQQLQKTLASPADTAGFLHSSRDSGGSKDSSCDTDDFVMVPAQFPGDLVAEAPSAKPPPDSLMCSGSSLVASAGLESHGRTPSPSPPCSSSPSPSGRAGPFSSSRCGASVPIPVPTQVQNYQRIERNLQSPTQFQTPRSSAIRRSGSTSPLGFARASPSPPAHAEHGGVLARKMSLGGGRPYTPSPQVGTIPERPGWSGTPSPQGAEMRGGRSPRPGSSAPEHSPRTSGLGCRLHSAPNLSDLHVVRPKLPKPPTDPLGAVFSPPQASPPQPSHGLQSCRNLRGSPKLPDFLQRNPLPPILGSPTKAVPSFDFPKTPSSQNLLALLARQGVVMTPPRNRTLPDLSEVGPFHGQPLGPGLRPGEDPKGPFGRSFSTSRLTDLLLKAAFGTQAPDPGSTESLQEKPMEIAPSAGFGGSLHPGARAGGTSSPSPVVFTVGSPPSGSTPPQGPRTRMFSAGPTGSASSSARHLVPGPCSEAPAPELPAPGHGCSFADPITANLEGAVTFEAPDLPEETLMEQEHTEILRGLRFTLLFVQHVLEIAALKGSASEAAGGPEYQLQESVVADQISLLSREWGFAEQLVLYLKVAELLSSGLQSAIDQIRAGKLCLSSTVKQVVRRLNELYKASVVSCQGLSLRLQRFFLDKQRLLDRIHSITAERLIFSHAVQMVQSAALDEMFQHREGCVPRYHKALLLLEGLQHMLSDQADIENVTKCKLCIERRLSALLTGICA

[5] = molecular target: Tyrosine-protein kinase ABL2 (Homo sapiens) (UniProt P42684); assay: Inhibition of human ABL2 at 18.6 nM by HotSpot assay relative to control
Chain of Tyrosine-protein kinase ABL2 (Homo sapiens) (P42684 whole entry): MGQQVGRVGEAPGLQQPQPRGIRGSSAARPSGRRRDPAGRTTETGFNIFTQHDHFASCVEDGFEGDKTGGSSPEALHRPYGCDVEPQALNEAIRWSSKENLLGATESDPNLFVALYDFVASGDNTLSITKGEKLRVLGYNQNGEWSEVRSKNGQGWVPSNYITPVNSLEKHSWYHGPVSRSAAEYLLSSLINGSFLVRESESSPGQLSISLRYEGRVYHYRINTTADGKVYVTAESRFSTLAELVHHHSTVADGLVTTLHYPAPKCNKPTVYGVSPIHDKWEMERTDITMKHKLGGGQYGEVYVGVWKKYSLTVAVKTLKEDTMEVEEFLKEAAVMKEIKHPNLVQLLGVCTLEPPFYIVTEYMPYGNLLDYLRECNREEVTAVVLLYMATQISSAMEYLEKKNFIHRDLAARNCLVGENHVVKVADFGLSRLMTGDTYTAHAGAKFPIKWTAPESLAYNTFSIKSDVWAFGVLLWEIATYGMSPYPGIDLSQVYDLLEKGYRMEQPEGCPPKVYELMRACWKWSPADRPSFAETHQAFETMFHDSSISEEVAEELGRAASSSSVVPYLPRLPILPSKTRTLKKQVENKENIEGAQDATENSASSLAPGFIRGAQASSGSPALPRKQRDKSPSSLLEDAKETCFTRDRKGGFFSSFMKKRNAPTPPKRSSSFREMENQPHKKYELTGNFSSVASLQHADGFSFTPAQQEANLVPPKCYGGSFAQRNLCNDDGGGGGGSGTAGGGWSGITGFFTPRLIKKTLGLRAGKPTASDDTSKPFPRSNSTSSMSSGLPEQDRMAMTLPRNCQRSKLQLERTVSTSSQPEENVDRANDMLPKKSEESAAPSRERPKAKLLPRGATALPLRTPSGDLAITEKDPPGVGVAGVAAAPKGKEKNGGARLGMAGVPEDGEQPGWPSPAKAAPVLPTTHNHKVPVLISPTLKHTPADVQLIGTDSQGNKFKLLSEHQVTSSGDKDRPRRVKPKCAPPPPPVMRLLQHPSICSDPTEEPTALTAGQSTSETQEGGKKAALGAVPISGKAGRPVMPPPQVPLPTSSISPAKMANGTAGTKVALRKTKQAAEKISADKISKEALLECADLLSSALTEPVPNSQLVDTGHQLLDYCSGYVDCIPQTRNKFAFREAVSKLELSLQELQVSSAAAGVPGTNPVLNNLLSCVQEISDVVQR

Homo sapiens = species on record: Homo sapiens; assay: Inhibition of human CDK2/cyclin A at 1.82 nM by HotSpot assay relative to control
[6] = molecular target: Death-associated protein kinase 3 (Homo sapiens) (UniProt O43293); assay: Inhibition of human DAPK3 at 1.82 nM by HotSpot assay relative to control
Chain of Death-associated protein kinase 3 (Homo sapiens) (O43293 whole entry, looked up): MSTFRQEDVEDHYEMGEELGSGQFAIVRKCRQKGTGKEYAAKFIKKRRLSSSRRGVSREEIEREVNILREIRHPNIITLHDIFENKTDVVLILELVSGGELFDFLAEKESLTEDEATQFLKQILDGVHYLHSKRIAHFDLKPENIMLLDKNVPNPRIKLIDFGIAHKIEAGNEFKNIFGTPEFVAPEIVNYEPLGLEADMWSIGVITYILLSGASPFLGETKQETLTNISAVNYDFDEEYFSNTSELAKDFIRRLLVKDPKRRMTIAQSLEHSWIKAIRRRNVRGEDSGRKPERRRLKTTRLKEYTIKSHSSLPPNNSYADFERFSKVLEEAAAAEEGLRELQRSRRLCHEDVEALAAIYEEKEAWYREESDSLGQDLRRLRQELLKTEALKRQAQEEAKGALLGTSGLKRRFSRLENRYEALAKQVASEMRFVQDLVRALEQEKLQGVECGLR

[7] = molecular target: T3, Dual specificity tyrosine-phosphorylation-regulated kinase 4 (Homo sapiens) (UniProt Q9NR20); assay: Inhibition of human DYRK4 at 1.82 nM by HotSpot assay relative to control
T3 sequence (whole entry): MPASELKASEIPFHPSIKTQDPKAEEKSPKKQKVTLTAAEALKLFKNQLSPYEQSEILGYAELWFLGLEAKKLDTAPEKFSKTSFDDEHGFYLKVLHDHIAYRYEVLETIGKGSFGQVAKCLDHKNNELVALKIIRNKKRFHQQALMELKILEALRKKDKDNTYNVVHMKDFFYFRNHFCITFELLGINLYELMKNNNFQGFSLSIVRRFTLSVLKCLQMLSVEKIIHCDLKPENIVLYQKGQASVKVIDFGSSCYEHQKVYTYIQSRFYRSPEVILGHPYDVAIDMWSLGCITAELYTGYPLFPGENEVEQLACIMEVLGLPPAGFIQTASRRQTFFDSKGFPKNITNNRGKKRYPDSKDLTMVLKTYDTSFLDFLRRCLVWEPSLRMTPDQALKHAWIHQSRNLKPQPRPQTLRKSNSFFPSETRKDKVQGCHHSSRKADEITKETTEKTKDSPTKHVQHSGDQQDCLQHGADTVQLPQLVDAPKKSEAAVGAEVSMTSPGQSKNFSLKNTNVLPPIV

Chain of Platelet-derived growth factor receptor beta (Homo sapiens) (P09619 whole entry): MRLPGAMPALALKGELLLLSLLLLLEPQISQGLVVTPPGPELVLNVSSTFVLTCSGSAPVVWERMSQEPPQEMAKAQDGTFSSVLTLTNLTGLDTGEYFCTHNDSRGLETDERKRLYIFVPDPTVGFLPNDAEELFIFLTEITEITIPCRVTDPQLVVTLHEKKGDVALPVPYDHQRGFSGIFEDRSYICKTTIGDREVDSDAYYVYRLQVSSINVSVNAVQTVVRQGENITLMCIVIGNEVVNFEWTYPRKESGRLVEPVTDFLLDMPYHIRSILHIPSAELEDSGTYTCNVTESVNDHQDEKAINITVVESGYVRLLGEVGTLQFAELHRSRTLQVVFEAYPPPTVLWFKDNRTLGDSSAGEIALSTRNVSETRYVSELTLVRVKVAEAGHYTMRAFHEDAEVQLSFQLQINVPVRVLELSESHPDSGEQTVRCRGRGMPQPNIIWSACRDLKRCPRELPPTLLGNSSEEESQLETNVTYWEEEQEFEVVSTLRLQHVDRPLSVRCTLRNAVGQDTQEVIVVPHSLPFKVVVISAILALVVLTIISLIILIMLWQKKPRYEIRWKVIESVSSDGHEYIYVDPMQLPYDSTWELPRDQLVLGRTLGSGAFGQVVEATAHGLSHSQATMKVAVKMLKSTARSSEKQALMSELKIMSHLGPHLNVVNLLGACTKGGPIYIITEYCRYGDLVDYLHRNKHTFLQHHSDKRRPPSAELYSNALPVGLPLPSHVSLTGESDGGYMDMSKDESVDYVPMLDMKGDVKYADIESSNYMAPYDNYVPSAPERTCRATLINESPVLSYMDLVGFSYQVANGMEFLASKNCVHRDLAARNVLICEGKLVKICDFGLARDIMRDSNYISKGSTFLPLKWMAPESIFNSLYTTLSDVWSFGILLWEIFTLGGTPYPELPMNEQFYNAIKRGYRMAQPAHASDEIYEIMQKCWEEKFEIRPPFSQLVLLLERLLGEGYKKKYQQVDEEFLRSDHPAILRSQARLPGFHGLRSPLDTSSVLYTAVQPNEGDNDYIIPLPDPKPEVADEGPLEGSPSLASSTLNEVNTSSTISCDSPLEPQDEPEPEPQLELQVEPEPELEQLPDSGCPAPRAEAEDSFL

Oc1n[nH]c2nnc(-c3c(-c4ccccc4)nn4ccccc34)cc12
inhibition [1]: -0.46%

C[C@]1(O)C[C@@H](c2nc(-c3ccc4ccc(-c5ccccc5)nc4c3)c3c(N)nccn32)C1
inhibition [2]: -0.35%
inhibition [3]: -1.08%
inhibition [4]: 2.65%
inhibition [5]: -0.1%

C[C@@]1(C(=O)Nc2ccc(F)nc2)CCCN1c1nc(Nc2cc(C3CC3)n[nH]2)c2cccn2n1
inhibition (Homo sapiens): 0.69%
inhibition [6]: 10.5%
inhibition [7]: -0.4%
